From ChEMBL document CHEMBL4477240, “Electron affinity of tricyclic, bicyclic, and monocyclic compounds containing cyanoenones correlates with their potency as inducers of a cytoprotective enzyme” (Bioorg Med Chem Lett, 2016)

Target: T1, Nuclear factor erythroid 2-related factor 2 (Mus musculus) (UniProt Q60795)
T1 sequence (whole entry): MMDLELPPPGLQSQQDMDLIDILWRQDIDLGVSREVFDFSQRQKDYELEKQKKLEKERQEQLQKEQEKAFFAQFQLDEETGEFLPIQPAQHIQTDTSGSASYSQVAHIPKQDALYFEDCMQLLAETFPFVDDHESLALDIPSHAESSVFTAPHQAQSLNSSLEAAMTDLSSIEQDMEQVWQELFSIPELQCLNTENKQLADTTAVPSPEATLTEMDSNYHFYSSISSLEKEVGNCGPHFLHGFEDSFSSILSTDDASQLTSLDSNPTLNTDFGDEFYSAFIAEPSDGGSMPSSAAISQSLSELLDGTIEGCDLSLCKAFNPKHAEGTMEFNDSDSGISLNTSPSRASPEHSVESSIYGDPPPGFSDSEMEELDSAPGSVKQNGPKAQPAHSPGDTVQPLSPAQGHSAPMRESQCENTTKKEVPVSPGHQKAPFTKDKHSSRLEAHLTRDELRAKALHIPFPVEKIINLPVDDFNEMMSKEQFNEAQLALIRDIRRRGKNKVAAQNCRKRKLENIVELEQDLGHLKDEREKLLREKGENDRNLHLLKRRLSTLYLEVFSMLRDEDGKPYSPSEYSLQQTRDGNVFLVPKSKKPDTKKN
Experiment: Activation of Nrf2 in mouse Hepa-1c1c7 cells assessed as concentration required to double specific activity of NQO1 incubated for 48 hrs
Type: cell-based

SMILES	pCD
C#CC1(CC)C=CC(=O)C(C#N)=C1 (configuration not stated)	7.38
C#CC12C=C(C#N)C(=O)C=C1CCC2 (configuration not stated)	7.25
C#CC1(C)C=C(C#N)C(=O)CC1 (configuration not stated)	7
CC#C[C@]12C=C(C#N)C(=O)C=C1[C@@]1(C)C=C(C#N)C(=O)C(C)(C)[C@@H]1CC2	8.12
C#CC1(C)C=CC(=O)C(C#N)=C1 (configuration not stated)	7.67
CC[C@]12C=C(C#N)C(=O)C=C1[C@@]1(C)C=C(C#N)C(=O)C(C)(C)[C@@H]1CC2	7.74
CC1(C)C=CC(=O)C(C#N)=C1	6.82
C#C[C@]12C=C(C#N)C(=O)C=C1[C@@]1(C)C=C(C#N)C(=O)C(C)(C)[C@@H]1CC2	9.04
CC1(C)C(=O)C(C#N)=C[C@]2(C)C3=CC(=O)C(C#N)=C[C@]3(C)CC[C@@H]12	7.74
CC1(C)C=C(C#N)C(=O)C(C)(C)C1	5.72
C#CC1(C#C)C=CC(=O)C(C#N)=C1	6.74
CC1(C)C(=O)C(C#N)=C[C@]2(C)C3=CC(=O)C=C[C@]3(C)CC[C@@H]12	6.8
C#CC12C=C(C#N)C(=O)C=C1C(C)(C)CC2 (configuration not stated)	7
C=CC1(C)C=CC(=O)C(C#N)=C1 (configuration not stated)	6.82
CC#CC1(C)C=CC(=O)C(C#N)=C1 (configuration not stated)	7.48
C#CC1(C=C)C=CC(=O)C(C#N)=C1 (configuration not stated)	7.7
C=C[C@]12C=C(C#N)C(=O)C=C1[C@@]1(C)C=C(C#N)C(=O)C(C)(C)[C@@H]1CC2	7.52
